Assay type: physicochemical
Conditions: relative to tank mix of CLARITY and CONTROLMAX; dicamba 1.2 wt. % a.e., glyphosate 2.4 wt. % a.e.; 35° C., 40% RH, 24 hours
Experimental: The dicamba volatility from each composition was measured by the procedure described in “A Method to Determine the Relative Volatility of Auxin Herbicide Formulations” in ASTM publication STP1587 entitled “Pesticide Formulation and Delivery Systems: 35th Volume, Pesticide Formulations, Adjuvants, and Spray Characterization in 2014, published 2016, which is incorporated herein by reference.
Humidomes obtained from Hummert International (Part Nos 14-3850-2 for humidomes and 11-3050-1 for 1020 flat tray) were modified by cutting a 2.2 cm diameter hole on one end approximately 5 cm from the top to allow for insertion of a glass air sampling tube (22 mm OD) containing a polyurethane foam (PUF) filter. The sampling tube was secured with a VITON o-ring on each side of the humidome wall. The air sampling tube external to the humidome was fitted with tubing that was connected to a vacuum manifold immediately prior to sampling.
The flat tray beneath the humidome was filled with 1 liter of sifted dry or wet 50/50 soil (50% Redi-Earth and 50% US 10 Field Soil) to a depth of about 1 cm. […]
The flat tray bottom containing the auxin herbicide formulation on soil was covered with the humidome lid and the lid was secured with clamps. […] The PUF filter was extracted with 20 mL of methanol and the solution was analyzed for the auxin herbicide concentration using LC-MS methods known in the art.

CCCC[N+](CCCC)(CCCC)CCCC.COc1c(Cl)ccc(Cl)c1C(=O)[O-] [TBA Dicamba, tetrabutylammonium (TBA) dicamba]
Volatility Reduction: 99.5%

Source: patent publication US20190014776A1 (priority 2017, published 2019)
